Laboratory results from patent US11180495B2 (Abbisko Therapeutics Co., Ltd., priority 2017, dated 2021).
Where two headings read alike, the source gives them in different places.

Tests used:
[1] = test system: MV-4-11 human acute monocytic leukemia cells; test: FLT3-related cell proliferation experiment (Cell Titer Glo); format: cell-based; details: MV4-11, 72 h, MV-4-11 cells, 3 days, CTG, read-out: Cytological experiment FLT3 IC50
Experimental: Functional effects of compounds on the proliferation of several cell lines were evaluated by Cell Titer Glo (CTG) studies in the present invention, and effects of the compounds on the proliferation of different cells were evaluated to determine the selectivity degree of the compounds. In the study, M-07e human cytomegalic leukemia cells (cat. No. CBP60791) from Nanjing Kebai Biotechnology Co., Ltd. were cultured in an incubator under conditions of RPMI1640 (Gibco, cat. No. 11875-119), 20% fetal bovine serum (Gibco, 10099-141), human 10 ng/mL GM-CSF granulocyte macrophage colony-stimulating factors (R&D, cat. No. 215-GM-010), 37° C. and 5% CO2; and Kasumi-1 human acute myeloblastic leukemia cells (cat. No. CBP60524) were cultured in an incubator under conditions of RPMI1640 (Gibco, cat. No. 11875-119), 20% fetal bovine serum (Gibco, 10099-141), 37° C. and 5% CO2; NCI-H1703 human non-small cell lung squamous carcinoma cells (cat. No. CBP60115) were cultured in an incubator under conditions of RPMI1640 (Gibco, cat. No. 11875-119), 10% fetal bovine serum (Gibco, 10099-141), 37° C. and 5% CO2; and MV-4-11 human acute monocytic leukemia cells (cat. No. CBP60522) were cultured in an incubator under conditions of IMDM (Invitrogen, cat. No. 12440053), 20% fetal bovine serum (Gibco, 10099-141), 37° C. and 5% CO2. Since ATP is an index for viable cell metabolism, CTG (Promega, #G7573) reagent is a homogeneous detection method for detecting the number of viable cells in the culture by quantifying ATP. Therefore, compound-mediated inhibition for cell proliferation/survival was evaluated by quantifying ATP content in cells, and the specific experimental process was as follows.
III) MV-4-11 Human Acute Monocytic Leukemia Cell • 1.

[2] = test system: M-NFS-60 mouse myeloid leukemia lymphocytes; test: CSF-1R-related cell proliferation experiment (Cell Titer Glo); format: cell-based; details: 72 h, M-NFS-60 cells, 3 days, CTG
Experimental: Functional effects of compounds on cell proliferation were evaluated by using Cell Titer Glo (CTG) study in the present invention. M-NFS-60 mouse myeloid leukemia lymphocytes (cat. No. CCBJ078) from National Institutes For Food and Drug Control were cultured in the incubator under conditions of RPMI 1640 (Gibco, cat. No. 11875-119), 10% fetal bovine serum (Gibco, 10099-141), human 10 ng/mL M-CSF macrophage colony-stimulating factor (R&D, cat. No. MVN0915101), 37° C. and 5% CO2. Since ATP is an index for viable cell metabolism, CTG (Promega, #G7573) reagent is a homogeneous detection method for detecting the number of viable cells in the culture by quantifying ATP. Therefore, compound-mediated inhibition for cell proliferation/survival was evaluated by quantifying ATP in cells, and the specific experimental process was as follows: • 1. The cells were plated into a tissue-culture-medium-treated 96-well plate (Costar #3904) with 5,000 cells/well/80 μL fresh culture medium: • 2. 24 hours later, 10 μL culture medium containing testing compound with 10-fold of final concentration was added to each well; • 3. 10 μL of culture medium containing M-CSF with 10-fold of the final concentration was then added to each well: • 4. dosage effect was evaluated by testing the 3-fold serial dilutions of the compound; • 5. after the cells were incubated for 3 days at 37° C. and 5% CO2, the inhibition on cell survival was quantified after 50 μL of CTG was added and the luminescence assay was performed; • 6. the compound concentration leading to half maximal inhibitory (IC50) and the compound concentration leading to absolute half maximal inhibitory (Absolute IC50) were measured by a plate reader (M1000, Tecan) and a four-parameter curve fit in Graphpad Prism 7. D. CSF-1R-Related Cell Proliferation Experiment

[3] = absolute half maximal inhibitory concentration, read-out: Cytological experiment CSF-1R Absolute IC50
[4] = read-out: Cytological experiment CSF1R IC50

| SMILES | IC50 [1] | IC50 [2, 3] | IC50 [2, 4] | IC50 ([2]; Lymphocyte, absolute half maximal inhibitory concentration, read-out: Cytological experiment CSF-1R Absolute IC50) |
| --- | --- | --- | --- | --- |
| Cc1nc(-c2cnc(NC(C)C)[nH]c2=O)ccc1Cc1c[nH]c2ncc(F)cc12 [Example 5, 5-(5-((5-fluoro-1H-pyrrolo[2,3-b]pyridin-3-yl)methyl)-6-methylpyridin-2-yl)-2-(isopropylamino)pyrimidin-4(3H)-one] | > 2000 nM | 47.9 nM | 77.9 nM |  |
| Cc1nc(-c2cnc(NC(C)C)n(C)c2=O)ccc1Cc1c[nH]c2ncccc12 [Example 7, 5-(5-((1H-pyrrolo[2,3-b]pyridin-3-yl)methyl)-6-methylpyridin-2-yl)-2-(isopropylamino)-3-methylpyrimidin-4(3H)-one] | 1290 nM | 33.7 nM | 39.7 nM |  |
| Cc1nc(-c2cnc3n(c2=O)CCCN3C)ccc1Cc1c[nH]c2ncc(Cl)cc12 [Example 13, 3-(5-((5-chloro-1H-pyrrolo[2,3-b]pyridin-3-yl)methyl)-6-methylpyridin-2-yl)-9-methyl-6,7,8,9-tetrahydro-4H-pyrimido[1,2-a]pyrimidin-4-one] | > 6000 nM | 38.6 nM | 46.8 nM |  |
| Cc1nc(-c2cnc3n(c2=O)CCCN3C)ccc1Cc1c[nH]c2ncccc12 [Example 14, 3-(5-((1H-pyrrolo[2,3-b]pyridin-3-yl)methyl)-6-methylpyridin-2-yl)-9-methyl-6,7,8,9-tetrahydro-4H-pyrimido[1,2-a]pyrimidin-4-one] | > 18000 nM | 105 nM | 96.7 nM |  |
| Cc1nc(-c2cnc3n(c2=O)CCC(C)N3C)ccc1Cc1c[nH]c2ncc(Cl)cc12 (stereo not drawn) [Example 15, 3-(5-((5-chloro-1H-pyrrolo[2,3-b]pyridin-3-yl)methyl)-6-methylpyridin-2-yl)-8,9-dimethyl-6,7,8,9-tetrahydro-4H-pyrimido[1,2-a]pyrimidin-4-one] | > 2000 nM | 83.3 nM | 91.3 nM |  |
| CCN1CCCn2c1ncc(-c1ccc(Cc3c[nH]c4ncc(Cl)cc34)c(C)n1)c2=O [Example 16, 3-(5-((5-chloro-1H-pyrrolo[2,3-b]pyridin-3-yl)methyl)-6-methylpyridin-2-yl)-9-ethyl-6,7,8,9-tetrahydro-4H-pyrimido[1,2-a]pyrimidin-4-one] | 876 nM | 71.8 nM | 68.6 nM |  |
| CCN1CCCn2c1ncc(-c1ccc(Cc3c[nH]c4ncc(-c5cnn(C)c5)cc34)c(C)n1)c2=O [Example 17] | 27.4 nM |  | 6.3 nM | 5 nM |
| Cc1nc(-c2cnc3n(c2=O)CCCN3C)ccc1Cc1c[nH]c2ncc(-c3cnn(C)c3)cc12 [Example 18, 9-methyl-3-(6-methyl-5-((5-(1-methyl-1H-pyrazol-4-yl)-1H-pyrrolo[2,3-b]pyridin-3-yl)methyl)pyridin-2-yl)-6,7,8,9-tetrahydro-4H-pyrimido[1,2-a]pyrimidin-4-one] | 505 nM | 4.9 nM | 5 nM |  |
| Cc1nc(-c2cnc3n(c2=O)CCCN3C)ccc1Cc1c[nH]c2ncc(F)cc12 [Example 20, 3-(5-((5-fluoro-1H-pyrrolo[2,3-b]pyridin-3-yl)methyl)-6-methylpyridin-2-yl)-9-methyl-6,7,8,9-tetrahydro-4H-pyrimido[1,2-a]pyrimidin-4-one] | > 18000 nM | 106 nM | 92.2 nM |  |
| Cc1cnc2[nH]cc(Cc3ccc(-c4cnc5n(c4=O)CCCN5C)nc3C)c2c1 [Example 21, 9-methyl-3-(6-methyl-5-((5-methyl-1H-pyrrolo[2,3-b]pyridin-3-yl)methyl)pyridin-2-yl)-6,7,8,9-tetrahydro-4H-pyrimido[1,2-a]pyrimidin-4-one] | > 18000 nM | 45.6 nM | 54 nM |  |
| COc1cnc2[nH]cc(Cc3ccc(-c4cnc5n(c4=O)CCCN5C)nc3C)c2c1 [Example 22, 3-(5-((5-methoxy-1H-pyrrolo[2,3-b]pyridin-3-yl)methyl)-6-methylpyridin-2-yl)-9-methyl-6,7,8,9-tetrahydro-4H-pyrimido[1,2-a]pyrimidin-4-one] | > 6000 nM | 39.1 nM | 48 nM |  |
| Cc1nc(-c2cnc3n(c2=O)CCCN3C)ccc1Cc1c[nH]c2ncc(O)cc12 [Example 23] | > 2000 nM | 131 nM | 140 nM |  |
